Laboratory results as given in patent publication US20230132133A1, “METHODS AND COMPOSITIONS FOR THE TREATMENT OF C. DIFFICILE” (priority 2018, published 2023).
Converted amounts (≈) assume the structure as drawn. “And” between values parts separate entries of the source, which are not always exact repeats. Identical values can stand only once.

Experiments:
[1] = system: B. amyloliquefaciens ART24; test: Antibiotic MIC following EFSA testing recommendations on lyophilized ART24 lots and cell banks; assay type: cell-based, Bacillus amyloliquefaciens
Source text: The minimum inhibitory concentration (MIC) of the listed antimicrobials is expressed as µg/mL.

[2] = system: B. amyloliquefaciens ART12; test: Antibiotic MIC, VetMIC Lact-1 & Lact-2 panels; assay type: cell-based, Bacillus amyloliquefaciens; settings: Bacillus amyloliquefaciens, ART12; 24 hr at 37° C.
Description: (§1) The wells of the prefabricated 96-well plates were filled with 100 μL of the final suspension. The plates were sealed with an […], Sigma Aldrich) sealing film (to facilitate growth of the aerobic Bacillus strains. The plates were then incubated for 24 hr at 37° C. The results are recorded after 24 hours as the lowest concentration of the antibiotic to inhibit visible growth. The prefabricated panels […], Uppsala, Sweden) comprising the antibiotics ampicillin, vancomycin, gentamicin, kanamycin, streptomycin, erythromycin, clindamycin, tetracycline, chloramphenicol, neomycin, penicillin, quinupristin-dalfopristin, linezolid, trimethoprim, ciprofloxacin and rifampicin were used.

[3] = system: B. amyloliquefaciens ART24; test: Antibiotic MIC, VetMIC Lact-1 & Lact-2 panels; assay type: cell-based, Bacillus amyloliquefaciens; settings: Bacillus amyloliquefaciens, ART24; 24 hr at 37° C.
Description: as §1

[4] = system: B. amyloliquefaciens ART4; test: Antibiotic MIC, VetMIC Lact-1 & Lact-2 panels; assay type: cell-based, Bacillus amyloliquefaciens; settings: Bacillus amyloliquefaciens, ART4; 24 hr at 37° C.
Description: as §1

C. difficile ATCC 43255 = test: C. difficile mouse model, in vivo efficacy; parameters: species or system Mice (C57BL/6J female); settings: to study day 10 post-C. difficile infection
Description: C. difficile mouse model. The mouse model of C. difficile infection was prepared as described elsewhere (Chen, X, et al., Gastroenterology 135:1984-1992 (2008)).
Mice (C57BL/6J female) were divided prospectively into 4 treatment groups of 15 animals (Table 7) and housed 5 animals per cage.
Mice received an antibiotic cocktail for eight consecutive days in their drinking water starting 13 days prior to C. difficile infection (study day 0). The antibiotic cocktail was changed every third day with freshly prepared antibiotics provided. The antibiotic cocktail consisted of 1% glucose, kanamycin (0.5 mg/mL), gentamicin (0.044 mg/mL), colistin (1062.5 U/mL), metronidazole (0.269 mg/mL), ciprofloxacin (0.156 mg/mL), ampicillin (0.1 mg/mL) and vancomycin (0.056 mg/mL). Five days prior to C. difficile infection, the antibiotic water was removed. Animals were placed in clean cages and sterile drinking water provided to the mice. Three days prior to infection mice were administered Clindamycin at 10 mg/kg via oral gavage in a volume of 10 mL/kg.
The strain was applied to TSA agar plates from frozen stocks (3 days prior to dosing) and cultured overnight at 37° C. […]
Mice were observed daily through the course of the study. […] Clinical observations were also performed with adverse observations recorded when appropriate. […]

With `CN[C@H](CC(C)C)C(=O)N[C@H]1C(=O)N[C@@H](CC(N)=O)C(=O)N[C@H]2C(=O)N[C@H]3C(=O)N[C@H](C(=O)N[C@H](C(=O)O)c4cc(O)cc(O)c4-c4cc3ccc4O)[C@H](O)c3ccc(c(Cl)c3)Oc3cc2cc(c3O[C@@H]2O[C@H](CO)[C@@H](O)[C@H](O)[C@H]2O[C@H]2C[C@](C)(N)[C@H](O)[C@H](C)O2)Oc2ccc(cc2Cl)[C@H]1O` [Vancomycin] the “MIC interpretation for ART24” value [1] was 0.5 (S) and ≤0.25 (S), the MIC ([1]; Bacillus amyloliquefaciens, ART24, read-out: MIC for ART24) was 0.5 µg/mL (≈ 0.345 µM) and the MIC [2] was 0.5 µg/mL (≈ 0.345 µM). The MIC [3] was 0.5 to 1 µg/mL (≈ 0.345 to 0.69 µM), the MIC [4] was 0.5 µg/mL (≈ 0.345 µM) and the “animals survived (survivors/group)” value (C. difficile ATCC 43255) was 15/15.
